Assay results: patent publication US9890195B2, “MK2 inhibitor compositions and methods to enhance neurite outgrowth, neuroprotection, and nerve regeneration” (Purdue Research Foundation, priority 2009, dated 2018)
Where no end group is shown, it is not given here.

System: mixed cortical cultures comprising neurons, astrocytes, and microglia
Assay: Immunocytochemistry/cell imaging of mixed cortical cultures treated with MK2i and TNF-α
Type: cell-based, Sprague-Dawley rat
Details: for morphological effects on neurons, astrocytes, microglia (FIG. 3): no TNF-α
Method: The effect of MK2i on neuronal cell death and microglical activation was investigated by treating 1-week old mixed cortical cultures comprising neurons, astrocytes, and microglia with the MK2i peptide […] [SEQ ID NO: 33]. Primary Cortical Cell Culture
Embryonic rat cortical tissue was obtained immediately following removal of embryos from the rat's abdomen. E17 Sprague-Dawley rat cortical tissue was placed in a 50 ml conical tube containing 5 ml of Solution 1 (NaCl 7.24 g/L; KCl 0.4 g/L; NaH2PO4 0.14 g/L; Glucose 2.61 g/L; Hepes 5.96 g/L; MgSO4 0.295 g/L; Bovine Serum Albumin 3 g/L). Under sterile conditions, 18 μl of trypsin solution (7.5 mg/ml in 0.9% saline) was added and tissue was passed through a 5-ml pipet several times to disassociate tissue. After the conical tube was placed in a 37° C. water bath for 20 minutes, 100 μl of trypsin inhibitor/DNAse solution (2.5 mg/ml trypsin inhibitor, 400 μg/ml DNase in 0.9% saline) was added to the tube and tissue was pipetted several times with a 5-ml pipet. Tissue was centrifuged at 1,000 rpm for 5 minutes at room temperature and supernatant was poured off. Cells were re-suspended in 16 ml of Hibernate E (BrainBits, Springfield, Ill.) and 100 μl of trypsin inhibitor/DNAse solution and pipetted up and down several times. Cells were filtered through a cell strainer and centrifuged at 1,400 rpm for 5 minutes at room temperature. Supernatant was poured off and cells were re-suspended in media. Primary cells were then plated in poly-D-lysine coated 96-well plates at a seeding density of 625,000 cells/cm^2 and incubated for 7-9 days at 37° C. After 7-9 days, cortical cells were treated with 5 ng/ml or 10 ng/ml of TNF-α to activate microglia. Cells then were treated with 0, 0.5, 1, or 3 mM MK2i peptide […] [SEQ ID NO: 33] for 4 hours, 8 hours, and 24 hours. After treatment, media was removed and stored at −20° C.
In preparation for staining mixed cortical cells, cell media was replaced with phosphate-buffered 4% formaldehyde solution for 5 minutes, followed by three washes using HBHS solution (HEPES-buffered Hank's saline containing 10 mg/L sodium azide, pH 7.4). Blocking solution, consisting of 10% normal goat serum in HBHS, then was applied for 30 minutes, followed by three washes with HBHS. Microglia, astrocytes, and neurons were labeled using antibodies against ionized calcium binding adaptor molecule 1 (Iba1, Wako), glial fibrillary acidic protein (GFAP, Millipore), and β-3-tubulin (β3tub, Covance), respectively. Antibodies were applied for 2 hours, at a dilution of 1:400 in HBHS. After two 10 minute washes and one 30 minute wash, secondary antibodies were applied. […]

## YARAAARQARAKALARQLGVAA-NH2 [MK2i]
5 ng/ml and 10 ng/ml TNF-α, 3 mM MK2i, which also resulted in neuronal cell damage
  suppression of TNF-α-induced neuronal cell damage (FIG. 4): not maintained
0.5 mM and 1.0 mM MK2i (below 3 mM)
  morphological effects on neurons, astrocytes, microglia (FIG. 3): Minimal morphological effects
3 mM MK2i
  astrocyte damage (FIG. 6): damage to astrocytes
  morphological effects on neurons, astrocytes, microglia (FIG. 3): increased neuronal and astrocytic cell damage, as well as microglial proliferation
